Consider four compounds from publication PMC11511194, “Key Factors for Improving Predictive Accuracy and Avoiding Overparameterization of the PBPK Absorption Model in Food Effect Studies of Weakly Basic Water-Insoluble Compounds in Immediate Release Formulations” (Pharmaceutics, 2024).

The conditions of data set [1]: active metabolite of ticagrelor; supplement ref 17; cited from earlier work.
Data set [2] can be described thus: Additional hepatic/systemic clearance fitted in PBPK model. From the text: (§1) S2. PBPK model development and validation physicochemical parameters for these three model drugs, including protein binding and Blood-to-Plasma (B/P) ratio, were obtained from experimental results, while log P and pKa were estimated based on the molecular formula using Gastro Plus ADMET software (version 10.3, […]
(§2) S2.1. Rivaroxaban PBPK model development and validation
S2.1.1. Rivaroxaban PBPK model development for metabolism and elimination module […]
its systemic clearance, CLint_CYP3A4, CLint_CYP2J2 and CLHLM were fitted according to the metabolic fraction of rivaroxaban in vivo and concentration-time profiles from the SAD clinical trial in Caucasian subjects under fasted state. […]
permeability-limited kidney and liver models were employed to account for the active efflux […]
Physicochemical properties

In the next data set the test system is CYP3A4. Briefly: CYP3A4 intrinsic clearance fitted in PBPK model. The note with it: Fitted to clinical PK profiles.
From the text: as §1, §2
S2.1.1. Rivaroxaban PBPK model development for metabolism and elimination module Given that the metabolic fractions of CYP3A4 and CYP2J2 to the systemic clearance of rivaroxaban were approximately 18% and 14% [1], respectively, and liver hydrolases contributed to about 14% of its systemic clearance, CLint_CYP3A4, CLint_CYP2J2 and CLHLM were fitted according to the metabolic fraction of rivaroxaban in vivo and concentration-time profiles from the SAD clinical trial in Caucasian subjects under fasted state. Considering that rivaroxaban was a substrate of P-gp transporter, and that about 36% and 7% of the parent drug were directly excreted by the kidney and liver, respectively, rivaroxaban may undergo active efflux through the kidney and liver in vivo [2]. Consequently, permeability-limited kidney and liver models were employed to account for the active efflux mechanism of P-gp for rivaroxaban. These models include both passive diffusion and active transport.
Clearances for passive diffusion in the kidney and liver was calculated using Equation S1 [5] and Equation S2 [6], respectively.
CL௉஽,௜ =2×P௔௣௣ × TSA௜ ሺS1ሻ where CLPD,i is the passive diffusion clearance of the drug in compartment i, Papp is the apparent permeability of the drug, and the TSAi is the regional tubular surface area of compartment i.
Log CL௉஽ =0.82×logD଻.ସ +0.5 ሺS2ሻ where CLPD is the passive diffusional clearance of APIs in the liver, and log D 7.4 is the oil-water partition coefficient at pH 7.4 [6] […]
Blood-to-plasma partition ratio 0.714 Measured
Fraction unbound in plasma 0.065 Measured […]
Caco-2(10-6cm/s) (Rivaroxaban) 8.103 Measured […]

The conditions of data set [3]: ticagrelor metabolite; supplement ref 14; cited from earlier work.
The test system of the next data set is Caco-2. The note with it: Apical pH : Basolateral pH 7.4 : 7.4, Passive&Active, cited from earlier work.
The next data set is described as follows: Caco-2 permeability. The format is in vitro ADME. The note with it: human, Apical pH : Basolateral pH 7.4 : 7.4, Passive&Active, Table S6 source 'Measured'. How it is done:
Precipitation parameters, such as critical supersaturation ratio (CSC) and precipitation rate constant (PRC), were evaluated when precipitation occurs in the neutral intestinal environment after the mixture of solution and undissolved substance is transferred from the gastric chamber in vitro. These parameters were evaluated by fitting the two-stage dissolution profile according to the crystallization kinetics equations [28, 29, 30]. The absorption module of the PBPK models for rivaroxaban, ticagrelor, and PB-201 was developed using the Advanced Dissolution, Absorption and Metabolism (ADAM) model, which incorporates a mechanistic framework based on drug permeability and the diffusion layer model (DLM). The calibrated permeability of drugs, as determined using the Caco-2 Transwell model, was used to represent the permeability of drugs in vivo [31]. The particle size of the APIs used in the formulation development was incorporated into the Particle Population Balance (PPB) option. The full PBPK model, which includes the predicted steady-state distribution volume (Vss) and tissue-plasma partition coefficient (Kp), was utilized to describe the distribution characteristics of these compounds. The Kp scalar was estimated via sensitive analysis to match observed concentration-time (C-T) profiles. […]

Read-outs that look alike come from different tables or passages of the source.

As to `CCCSc1nc(N[C@@H]2C[C@H]2c2ccc(F)c(F)c2)c2nnn([C@@H]3C[C@H](O)[C@@H](O)[C@H]3O)c2n1` [AR-C124910XX], the renal excretion result in data set [1] is listed as “about 0.04%”. Moreover, in data set [2], the “Additional HLM CLint” value was 5000 μL/min/mg protein. Moreover, the “Intrinsic clearance of CYP 3A4” value with CYP3A4 was found to be 6.000 µL/min/pmol. The “Fraction unbound in plasma” value in data set [3] is listed as 0.002.

Take `CN/C(=N/CCSCc1nc[nH]c1C)NC#N` [Cimetidine]: in the data set on Caco-2 (supplement ref 4), the Caco-2 permeability is reported as 2.36 10-6cm/s.

As for `COCCc1ccc(OCC(O)CNC(C)C)cc1` (centres unmarked) [Metoprolol], in the data set on Caco-2 (supplement ref 19), the Caco-2 permeability is given as 15.0 10-6cm/s.

For `CC(C)NCC(O)COc1cccc2ccccc12` (centres unmarked) [Propranolol], in the data set with Caco-2 (supplement ref 4), the Caco-2 permeability was 31 10-6cm/s. Besides, the Papp (commonly a coefficient for how fast a substance crosses the barrier) in the data set “Caco-2 permeability” was 29.4 ×10⁻⁶ cm/s.
